{
  "source": "patent US20160251402A1",
  "about": "“MICROPEPTIDES AND USE OF SAME FOR MODULATING GENE EXPRESSION” (UNIVERSITE PAUL SABATIER TOULOUSE III, priority 2013, published 2016)",
  "tested_on": "MtmiR171b",
  "test": "Accumulation of MtmiR171b / pre-MtmiR171b in M. truncatula roots (qRT-PCR)",
  "assay_type": "in vivo, Medicago truncatula",
  "conditions": "for relative expression of pre-MtmiR171b: watering once daily for 5 days with peptide at 0.01, 0.1 or 1 μM vs control plants",
  "experimental": "The surface of seeds of M truncatula was sterilized and they were left to germinate on agar plates for 5 days at 4° C. in the dark. The young shoots were then grown on 12-cm square plates filled with Fahraeus medium without nitrogen and containing 7.5 μM phosphate (Lauressergues et al., Plant J., 72(3): 512-22, 2012). The lateral roots were counted every day. In pots, the plants were watered every other day with modified Long Ashton medium with low phosphorus content (Balzergue et al., Journal of Experimental Botany, (62)1049-1060, 2011).\nThe peptides were synthesized by Eurogentec or Smartox-Biotech. MtmiPEP171b1 was resuspended in a solution of 40% water/50% acetonitrile/10% acetic acid (v/v/v), and the other peptides were resuspended in water.\nThe RNA was extracted using the reagent Tri-Reagent (MRC) according to the manufacturer's instructions, except for precipitation of the RNA, which was carried out with 3 volumes of ethanol. The everse transcription of the RNA was carried out using the specific stem-loop primer RTprimer171b in combination with hexamers for performing the reverse transcription of RNA of high molecular weight.\nIn brief, 1 μg of RNA was added to the stem-loop primer MIR171b (0.2 μM), the hexamer (500 ng), the buffer RT (1×), the enzyme SuperScript Reverse transcriptase (SSIII) (one unit), the dNTPs (0.2 mM each), DTT (0.8 mM) in a final reaction mixture of 25 μl. […]\nThe mean values of the relative expression of the genes or of the production of lateral roots were analysed using the Student test or the Kruskal-Wallis test. […]\nThe composite plants having roots transformed with Agrobacterium rhizogenes were obtained by the method described in Boisson-Dernier et al. (Mol Plant-Microbe Interact, 18: 1269-1276, 2005). The transformed roots were verified and selected by observations of DsRED with a binocular fluorescence magnifier. […]",
  "data": [
    {"sequence": "MLLHRLSKFCKIERDIVYIS (listed as Medicago truncatula) [MtmiPEP171b1]", "values": [
      {"measurement": "relative expression of MtmiR171b", "setting": "watering once daily for 5 days with peptide at 0.01, 0.1 or 1 μM vs control plant", "result": "increase in the accumulation"},
      {"measurement": "relative expression of pre-MtmiR171b", "result": "increase in the accumulation of pre-MtmiR171b"},
      {"measurement": "relative expression of pre-MtmiR171b", "setting": "listed as MtPEP171b1", "result": "increase in the accumulation"}
    ]}
  ]
}
